Assay results reported in patent US10681909B2, “Herbicidal triazoles” (FMC Corporation, priority 2014, dated 2020).

Legend:
[1] = tested on: sedge, umbrella; assay: Test B flooded paddy test; type: in vivo, Cyperus difformis; settings: 125 g ai/ha, applied to paddy water at 2-leaf stage, visual rating after 13 to 15 d, scale 0 (no effect) to 100 (complete control)
Text: (§1) At time of treatment, test pots were flooded to 3 cm above the soil surface, treated by application of test compounds directly to the paddy water, and then maintained at that water depth for the duration of the test. Treated plants and controls were maintained in a greenhouse for 13 to 15 d, after which time all species were compared to controls and visually evaluated. […] A dash (-) response means no test result.

[2] = tested on: crabgrass, large; assay: Test A preemergence; type: in vivo, Digitaria sanguinalis; settings: 0 to 100 scale (0 no effect, 100 complete control)
Text: (§2) Seeds of plant species selected from barnyardgrass (Echinochloa crus-galli), crabgrass, large (large crabgrass, Digitaria sanguinalis), kochia (Kochia scoparia), ragweed (common ragweed, Ambrosia elatior), foxtail, giant (giant foxtail, Setaria faberii), morningglory (Ipomoea spp.), pigweed (Amaranthus retroflexus), velvetleaf (Abutilon theophrasti), ryegrass, Italian (Italian ryegrass, Lolium multiflorum), wheat (Triticum aestivum), and corn (Zea mays) were planted into a blend of loam soil and sand and treated preemergence with a directed soil spray using test chemicals formulated in a non-phytotoxic solvent mixture which included a surfactant. At the same time, plants selected from these crop and weed species and also blackgrass (Alopecurus myosuroides), and galium (catchweed bedstraw, Galium aparine), were planted in pots containing the same blend of loam soil and sand and treated with postemergence applications of test chemicals formulated in the same manner. Plants ranged in height from 2 to 10 cm and were in the one- to two-leaf stage for the postemergence treatment. […] A dash (-) response means no test result.

[3] = tested on: velvetleaf; assay: Test A postemergence; type: in vivo, Abutilon theophrasti; settings: 0 to 100 scale (0 no effect, 100 complete control), approx. 10 d
Text: as §2

[4] = tested on: barnyardgrass; assay: Test B flooded paddy test; type: in vivo, Echinochloa crus-galli; settings: 125 g ai/ha, applied to paddy water at 2-leaf stage, visual rating after 13 to 15 d, scale 0 (no effect) to 100 (complete control)
Text: as §1

[5] = tested on: barnyardgrass; assay: Test A postemergence; type: in vivo, Echinochloa crus-galli; settings: 0 to 100 scale (0 no effect, 100 complete control), approx. 10 d
Text: as §2

[6] = tested on: wheat; assay: Test A preemergence; type: in vivo, Triticum aestivum; settings: 0 to 100 scale (0 no effect, 100 complete control)
Text: as §2

[7] = tested on: ducksalad; assay: Test B flooded paddy test; type: in vivo, Heteranthera limosa; settings: 125 g ai/ha, applied to paddy water at 2-leaf stage, visual rating after 13 to 15 d, scale 0 (no effect) to 100 (complete control)
Text: as §1

[8] = tested on: velvetleaf; assay: Test A preemergence; type: in vivo, Abutilon theophrasti; settings: 0 to 100 scale (0 no effect, 100 complete control)
Text: as §2

[9] = tested on: corn; assay: Test A preemergence; type: in vivo, Zea mays; settings: 0 to 100 scale (0 no effect, 100 complete control)
Text: as §2

[10] = tested on: crabgrass, large; assay: Test A postemergence; type: in vivo, Digitaria sanguinalis; settings: 0 to 100 scale (0 no effect, 100 complete control), approx. 10 d
Text: as §2

[11] = tested on: morningglory; assay: Test A preemergence; type: in vivo, Ipomoea spp.; settings: 0 to 100 scale (0 no effect, 100 complete control)
Text: as §2

[12] = tested on: pigweed; assay: Test A preemergence; type: in vivo, Amaranthus retroflexus; settings: 0 to 100 scale (0 no effect, 100 complete control)
Text: as §2

[13] = tested on: foxtail, giant; assay: Test A preemergence; type: in vivo, Setaria faberii; settings: 0 to 100 scale (0 no effect, 100 complete control)
Text: as §2

[14] = tested on: barnyardgrass; assay: Test A preemergence; type: in vivo, Echinochloa crus-galli; settings: 0 to 100 scale (0 no effect, 100 complete control)
Text: as §2

[15] = tested on: pigweed; assay: Test A postemergence; type: in vivo, Amaranthus retroflexus; settings: 0 to 100 scale (0 no effect, 100 complete control), approx. 10 d
Text: as §2

[16] = tested on: morningglory; assay: Test A postemergence; type: in vivo, Ipomoea spp.; settings: 0 to 100 scale (0 no effect, 100 complete control), approx. 10 d
Text: as §2

[17] = tested on: foxtail, giant; assay: Test A postemergence; type: in vivo, Setaria faberii; settings: 0 to 100 scale (0 no effect, 100 complete control), approx. 10 d
Text: as §2

[18] = tested on: corn; assay: Test A postemergence; type: in vivo, Zea mays; settings: 0 to 100 scale (0 no effect, 100 complete control), approx. 10 d
Text: as §2

[19] = tested on: rice; assay: Test B flooded paddy test; type: in vivo, Oryza sativa; settings: 125 g ai/ha, applied to paddy water at 2-leaf stage, visual rating after 13 to 15 d, scale 0 (no effect) to 100 (complete control)
Text: as §1

[20] = tested on: wheat; assay: Test A postemergence; type: in vivo, Triticum aestivum; settings: 0 to 100 scale (0 no effect, 100 complete control), approx. 10 d
Text: as §2

Compound | Plant response rating, Sedge, Umbrella, Flood [1] | Plant response rating, Crabgrass, Large ([2]; 125 g ai/ha) | Plant response rating, Crabgrass, Large ([2]; 500 g ai/ha, approx. 10 d) | Plant response rating, Velvetleaf ([3]; 125 g ai/ha) | Plant response rating, Velvetleaf ([3]; 500 g ai/ha) | Plant response rating, Barnyardgrass, Flood [4] | Plant response rating, Barnyardgrass ([5]; 125 g ai/ha) | Plant response rating, Barnyardgrass ([5]; 500 g ai/ha) | Plant response rating, Wheat ([6]; 125 g ai/ha) | Plant response rating, Wheat ([6]; 500 g ai/ha, approx. 10 d) | Plant response rating, Ducksalad, Flood [7] | Plant response rating, Velvetleaf ([8]; 125 g ai/ha) | Plant response rating, Velvetleaf ([8]; 500 g ai/ha, approx. 10 d) | Plant response rating, Corn ([9]; 125 g ai/ha) | Plant response rating, Corn ([9]; 500 g ai/ha, approx. 10 d) | Plant response rating, Crabgrass, Large ([10]; 125 g ai/ha) | Plant response rating, Crabgrass, Large ([10]; 500 g ai/ha) | Plant response rating, Morningglory ([11]; 125 g ai/ha) | Plant response rating, Morningglory ([11]; 500 g ai/ha, approx. 10 d) | Plant response rating, Pigweed ([12]; 125 g ai/ha) | also measured
CCn1nc(-c2ccc(F)cc2)nc1Cc1ccnc(C(F)(F)F)c1 [Compound 18] | 70 | 90 | 100 | 30 | 80 | 0 | 30 | 60 | 0 | 0 | 70 | 10 | 70 | 0 | 0 | 60 | 90 | 10 | 40 | 100 | Plant response rating, Pigweed ([12]; 500 g ai/ha, approx. 10 d): 100; Plant response rating, Foxtail, Giant ([13]; 125 g ai/ha): 90; Plant response rating, Foxtail, Giant ([13]; 500 g ai/ha, approx. 10 d): 100; Plant response rating, Barnyardgrass ([14]; 125 g ai/ha): 10; Plant response rating, Barnyardgrass ([14]; 500 g ai/ha, approx. 10 d): 60; Plant response rating, Pigweed ([15]; 125 g ai/ha): 100; Plant response rating, Pigweed ([15]; 500 g ai/ha): 100; Plant response rating, Morningglory ([16]; 125 g ai/ha): 50; Plant response rating, Morningglory ([16]; 500 g ai/ha): 100; Plant response rating, Foxtail, Giant ([17]; 125 g ai/ha): 50; Plant response rating, Foxtail, Giant ([17]; 500 g ai/ha): 90; Plant response rating, Corn ([18]; 125 g ai/ha): 30; Plant response rating, Corn ([18]; 500 g ai/ha): 40; Plant response rating, Rice, Flood [19]: 0; Plant response rating, Wheat ([20]; 125 g ai/ha): 20; Plant response rating, Wheat ([20]; 500 g ai/ha): 30
Cn1nc(-c2ccc(F)cc2)nc1Cc1ccnc(C(F)(F)F)c1 [Compound 13] | 80 | 100 | 100 | 70 | 90 | 0 | 50 | 90 | 0 | 0 | 65 | 20 | 80 | 0 | 10 | 70 | 90 | 60 | 70 | 100 | Plant response rating, Pigweed ([12]; 500 g ai/ha, approx. 10 d): 100; Plant response rating, Foxtail, Giant ([13]; 125 g ai/ha): 100; Plant response rating, Foxtail, Giant ([13]; 500 g ai/ha, approx. 10 d): 100; Plant response rating, Barnyardgrass ([14]; 125 g ai/ha): 30; Plant response rating, Barnyardgrass ([14]; 500 g ai/ha, approx. 10 d): 100; Plant response rating, Pigweed ([15]; 125 g ai/ha): 100; Plant response rating, Pigweed ([15]; 500 g ai/ha): 100; Plant response rating, Morningglory ([16]; 125 g ai/ha): 70; Plant response rating, Morningglory ([16]; 500 g ai/ha): 100; Plant response rating, Foxtail, Giant ([17]; 125 g ai/ha): 80; Plant response rating, Foxtail, Giant ([17]; 500 g ai/ha): 90; Plant response rating, Corn ([18]; 125 g ai/ha): 30; Plant response rating, Corn ([18]; 500 g ai/ha): 60; Plant response rating, Rice, Flood [19]: 0; Plant response rating, Wheat ([20]; 125 g ai/ha): 30; Plant response rating, Wheat ([20]; 500 g ai/ha): 40
CCCc1nc(-c2ccc(C(F)(F)F)cc2)nn1Cc1ccnc(C(F)(F)F)c1 [Compound 12] | 0 | 100 | 100 | 70 | 100 | 0 | 30 | 50 | 10 | 30 | 0 | 70 | 70 | 0 | 20 | 50 | 90 | 70 | 90 | 100 | Plant response rating, Pigweed ([12]; 500 g ai/ha, approx. 10 d): 100; Plant response rating, Foxtail, Giant ([13]; 125 g ai/ha): 100; Plant response rating, Foxtail, Giant ([13]; 500 g ai/ha, approx. 10 d): 100; Plant response rating, Barnyardgrass ([14]; 125 g ai/ha): 50; Plant response rating, Barnyardgrass ([14]; 500 g ai/ha, approx. 10 d): 80; Plant response rating, Pigweed ([15]; 125 g ai/ha): 100; Plant response rating, Pigweed ([15]; 500 g ai/ha): 100; Plant response rating, Morningglory ([16]; 125 g ai/ha): 70; Plant response rating, Morningglory ([16]; 500 g ai/ha): 100; Plant response rating, Foxtail, Giant ([17]; 125 g ai/ha): 70; Plant response rating, Foxtail, Giant ([17]; 500 g ai/ha): 90; Plant response rating, Corn ([18]; 125 g ai/ha): 20; Plant response rating, Corn ([18]; 500 g ai/ha): 40; Plant response rating, Rice, Flood [19]: 0; Plant response rating, Wheat ([20]; 125 g ai/ha): 30; Plant response rating, Wheat ([20]; 500 g ai/ha): 40
